According to patent publication US12152240B2, “Permanent epigenetic gene silencing” (Ospedale San Raffaele S.R.L., priority 2014, dated 2024):

What was measured:
Format in all cases: cell-based, human
B2M gene, HEK-293T cells = test: B2M, OAS1 and B2M locus gene expression in HEK-293T cells (RT-qPCR)
Description: Remarkably, up to 80% of the cells treated with all the ATRs permanently lost B2M surface expression. In parallel experiments, we sorted the B2M-negative and the B2M-positive cells, and analysed them for surface expression of MHC-I molecules, which require B2M to be presented on the plasma membrane. […] Then we assessed if the three effector domains were capable of inducing permanent epigenetic silencing also when targeted to the B2M gene via the RNA-guided CRISPR/Cas9 system. To this aim, we fused in frame to a catalytically dead Cas9 (D10A+H840A; dCas9; amino acid sequence listed in Table 4) the KRAB, the DNMT3A or the DNMT3L effector domains (FIG. 13E; top drawings), and designed 11 guide RNAs (gRNAs; nucleotide sequences listed in Table 4) targeting the promoter region of the B2M gene (FIG. 13E; bottom schematic, arrows indicate the location of the CRISPR/dCas9 target sites). […] We then assessed if B2M silencing was resistant to IFN-γ treatment, a potent inducer of B2M expression (Vraetz, T. et al. (1999) Nephrol. Dial. Transplant. 14:2137-43; Gobin, S. J. et al. (2003) Blood 101:3058-64). […]
In order to assess if silencing induced by our ATRs was associated with the deposition of repressive epigenetic marks on the targeted gene, we analysed the epigenetic state of the B2M gene in wild-type and silenced cells. […]

[1] = system: eGFP-negative (silenced) AAVS1/TetO7 cells; test: 5-Aza treatment of eGFP-silenced AAVS1/TetO7 cells (flow cytometry); conditions: 7 days
Protocol: In order to understand if DNA methylation was necessary to maintain the repressive state induced by tetR:D3A, the eGFP-cells from the doxy-conditions in FIG. 2D were treated with either 5-Aza-2′-deoxycytidine (5-Aza) or vehicle (i.e. Dimethyl Sulfoxide, DMSO) and then analysed by flow cytometry to measure eGFP expression. 5-Aza is a cytosine analogue that after becoming incorporated into DNA is recognised by DNA methyltransferase as a substrate, establishing a covalent bond that, contrary to cytosine, is not resolved, thus blocking DNMT activity (Issa, J. P. et al. (2005) Nat. Rev. Drug Discov. Suppl. S6-7).
To test activity of the ATRs, the reporter cell lines were transduced with the ATR-expressing Bid.LV at a MOI of 10, or transfected with plasmids or in vitro transcribed mRNAs expressing the ATRs (4D-Nucleofector™ System; Lonza) according to the manufacturer's instruction for K-562, U937 and NIH/3T3, or using the pulse program EW-113 and the SF solution for B-lymphoblastoid cells. […] The AZA-containing media was replaced every day, and the cells were analysed by flow cytometry at day 4 and 7 after treatment. […] The IFN-γ-containing media was replaced every day, and the cells were analysed by flow cytometry at day 2 and 4 after treatment. […] Two weeks after plating, colonies were counted and identified according to morphological criteria and analysed by flow cytometry.

[2] = system: B2M gene promoter region, HEK-293T cells; test: B2M silencing in HEK-293T cells (flow cytometry); conditions: day 7 upon AZA treatment
Description: In order to assess if the results obtained with the eGFP reporter system could also be translated to an endogenous gene embedded in its natural epigenetic context, we generated custom-made TALEs targeting the promoter region of the B2-Microglobulin (B2M) gene (the amino acid sequences of these TALEs and the nucleotide sequences of their corresponding binding sites are listed in Table 3), and fused these TALEs to the KRAB, DNMT3A and DNMT3L effector domains (for a schematic of the system refer to FIG. 13A). The spacer length between the first and the second, or between the second and the third TALE is 1 or 20 bp, respectively. We then co-transfected HEK-293T cells with the plasmids encoding for these novel ATRs and analysed the cells by flow cytometry for B2M expression.
Remarkably, up to 80% of the cells treated with all the ATRs permanently lost B2M surface expression. In parallel experiments, we sorted the B2M-negative and the B2M-positive cells, and analysed them for surface expression of MHC-I molecules, which require B2M to be presented on the plasma membrane. […] Then we assessed if the three effector domains were capable of inducing permanent epigenetic silencing also when targeted to the B2M gene via the RNA-guided CRISPR/Cas9 system. […]
We then assessed if these findings also held true with ATRs based on custom-made DNA binding domains. […]

IFN-γ: a potent inducer of B2M expression
B2M expression upon IFN-γ treatment (transcriptional and protein level) (B2M gene, HEK-293T cells; 500 U/mL IFN-γ, wild-type or sorted B2M-negative cells): significantly upregulated B2M expression
upregulation of OAS1 gene expression (B2M gene, HEK-293T cells; IFN-γ treatment, all cell types tested (wild-type and B2M-negative)): > 100 fold

Nc1ncn([C@H]2C[C@H](O)[C@@H](CO)O2)c(=O)n1 [5-Aza, 5-Aza-2′-deoxycytidine]
eGFP expression after 5-Aza treatment ([1]; eGFP- cells silenced with tetR:D3A, 1 μM): full reactivation of eGFP expression
eGFP expression after 5-Aza treatment ([1]; eGFP-negative sorted cells from tetR:K/tetR:D3A conditions): completely reactivated eGFP expression
B2M expression after AZA treatment of previously silenced cells [2]: re-expression of the B2M gene
